Values quoted from earlier work in US9168307B2, “Mitochondrial-targeted cationic nanoparticles comprising CaMKII inhibitors and uses thereof for treating and preventing diseases and disorders associated with CaMKII activity” (University of Iowa Research Foundation, priority 2012, dated 2015).

System: CaMKII
Details: starting point for dose response curve

IC50: 100 nM
Sequence: KRPPKLGQIGRAKRVVIEDDR (SEQ ID NO:1) [peptide]
